Experimental data from article PMC5053890 (Bioorganic & medicinal chemistry, 2016).

Biological target: T1, GVIA iPLA2 (Homo sapiens, UniProt O60733)
T1 sequence (O60733 1-806): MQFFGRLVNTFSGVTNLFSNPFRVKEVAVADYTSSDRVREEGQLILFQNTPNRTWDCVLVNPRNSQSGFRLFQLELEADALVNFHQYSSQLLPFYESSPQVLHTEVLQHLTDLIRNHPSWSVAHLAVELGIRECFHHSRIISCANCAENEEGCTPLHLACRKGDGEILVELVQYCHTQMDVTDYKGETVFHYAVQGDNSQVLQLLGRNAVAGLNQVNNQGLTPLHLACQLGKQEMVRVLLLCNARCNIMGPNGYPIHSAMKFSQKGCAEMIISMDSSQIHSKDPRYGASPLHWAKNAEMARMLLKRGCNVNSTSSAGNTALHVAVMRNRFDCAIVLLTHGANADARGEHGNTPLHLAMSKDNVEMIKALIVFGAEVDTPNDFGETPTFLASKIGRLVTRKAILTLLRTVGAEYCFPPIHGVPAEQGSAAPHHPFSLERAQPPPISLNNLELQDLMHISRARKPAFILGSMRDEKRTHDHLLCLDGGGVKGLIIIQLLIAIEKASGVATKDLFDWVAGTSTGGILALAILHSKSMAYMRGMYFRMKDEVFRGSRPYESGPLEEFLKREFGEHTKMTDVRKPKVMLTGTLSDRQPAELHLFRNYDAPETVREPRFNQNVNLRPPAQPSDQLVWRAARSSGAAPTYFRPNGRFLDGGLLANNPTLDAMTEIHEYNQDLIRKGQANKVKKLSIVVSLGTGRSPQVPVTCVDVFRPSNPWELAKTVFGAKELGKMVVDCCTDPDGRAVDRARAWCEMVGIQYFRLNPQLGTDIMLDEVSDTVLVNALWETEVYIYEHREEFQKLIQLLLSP
Experiment: mixed micelle modified Dole assay, GVIA iPLA2
Assay type: biochemical
Conditions: read-out: IC50 (converted from XI(50)); 0.091 mole fraction corresponds to 50 μM

Compound `CCCCCCCCSCC(=O)C(F)(F)F` [Compound 3] has an IC50 of 110 nM.
